Assay results as given in patent US9266921B2, “PGC-1α-modulating peptides” (Lipotec, S.A., priority 2011, dated 2016).

Legend:
[1] = tested on: subcutaneous human pre-adipocytes; experiment: Accumulation of lipids in subcutaneous human pre-adipocytes (AdipoRed); format: cell-based; conditions: peptide 0.1 mg/mL in PDM-2, 10 days, PGM-2 = 0%, PDM-2 = 100%
Method: The levels of accumulation of lipids in subcutaneous human pre-adipocytes were quantified using the AdipoRed™ (Lonza) reagent. 100,000 cells were cultivated per well in PGM™-2 medium at a final volume of 100 μL. After 24 hours, the differentiation from pre-adipocytes to mature adipocytes was induced changing the medium to PDM-2 in the presence of the different peptides at 0.1 mg/mL. After 10 days of treatment with the peptides in differentiation medium, the quantity of intracellular lipids was evaluated using the AdipoRed™ reagent following the manufacturer's instructions measuring the fluorescence of the samples (length of the excitation wave 485 nm and emission 535 nm) after adding the AdipoRed™ reagent. The fluorescence values were corrected with regards to the basal fluorescence and were normalized with regards to the maximum differentiation controls (PDM-2 medium, maximum accumulation of lipids) and minimum differentiation (PGM™-2 medium, minimum accumulation of lipids).

PGC-1α gene = experiment: Transcription of the PGC-1α gene, quantitative real time PCR in differentiating pre-adipocytes; format: cell-based; conditions: subcutaneous human adipocytes; peptide 0.1 mg/mL in PDM-2, 10 days; PGM-2 = 0%, PDM-2 = 100%
Method: The expression levels of the gene PGC-1α are measured by PCR in quantitative real time. A cell line of subcutaneous human pre-adipocytes is incubated in PGM™-2 medium at a density of 100,000 cells/well in a volume of 100 μL for 24 hours. Differentiation is induced by changing the medium to PDM-2 in the presence of the peptides Ac-L-Ser-L-Ile-L-Tyr-L-Val-L-Ala-L-Thr-NH2 (Ac-SEQ ID NO. 1-NH2) and Ac-L-Ser-L-Val-L-Val-L-Val-L-Arg-L-Thr-NH2 (Ac-SEQ ID NO. 2-NH2) at 0.1 mg/mL for 10 days, after which the cells were lysed and the RNA is extracted. The PCR is carried out in quantitative real time using the Taqman® Gene Expression Cells-to-CT (Applied Biosystems) kit according to the manufacturer's instructions and with the appropriate probes (TaqMan® Hs01016719_m1 probe for the PGC-1α gene and Taqman® Hs99999901_s1 probe for the eukaryotic ribosomal subunit 18S, the endogenous control of expression) and the values are normalized with regards to the maximum differentiation controls (PDM-2 medium, maximum quantity of PGC-1α mRNA) and minimal differentiation (PGM™-2 medium, minimum quantity of PGC-1α mRNA).

breasts = experiment: Volume of the breasts in volunteers (Fast Optical In Vivo Topometry); set-up: species or system human; conditions: treatment up to 56 days
Source text: 22 Caucasian volunteers between the age of 25 and 40, with healthy skin and a bra size of between 36 C to 40 E applied the composition from Example 16 to one breast and a placebo composition (the same composition from Example 16 without the peptide) to the other breast, twice a day for 56 days. The volume of the breasts was instrumentally assessed at the beginning of the study, after 14 days and 28 days of applying the compositions and at the end of the study (56 days) using the Fast Optical In Vivo Topometry Technique, which enables the volume of the breasts to be calculated in mm^3. The volume of the breasts was normalized initially at an arbitrary value of 100,000 mm^3 and the changes in volume of the breasts was measured at the different treatment times in relation to their initial volume. The statistical analysis of the evolution of the parameters measured during the study was carried out using the Student's t-test or the Wilcoxon test. The statistical significance threshold was established at 5%.

human PGC-1α promoter = experiment: Modulation of the human PGC-1α promoter activity (luciferase reporter, Hep G2); format: cell-based; conditions: Hep G2 transfected with luciferase under human PGC-1α promoter; peptide 0.5 mg/mL, 24 hours; normalized to carrier = 100%
Method: The modulation capacity of the promoter of human PGC-1α is evaluated by the peptides in the invention in the hepatocellular Hep G2 carcinoma cell line transfected with the luciferase gene under the regulation of the human PGC-1α promoter. The cells are seeded at a density of 20,000 cells/25 cm^2 plate) and incubated for 24 hours in RPMI-1640 complete medium, after which the peptides of the invention are added at 0.5 mg/mL and are incubated for another 24 hours. The RPMI-1640 complete medium (carrier) is used as a negative control. The measurement of the promoter's activity is carried out using the Steady-Glo® Luciferase Assay System (PROMEGA) kit following the manufacturer's instructions. The luminescence values are read on a luminometer […] and the activity of the promoter is determined, which is normalized with regards to the values of the negative control.

Ac-L-Ser-L-Val-L-Val-L-Val-L-Arg-L-Thr-NH2 (Ac-SVVVRT-NH2) [Ac-SEQ ID NO. 2-NH2]
% Accumulation of intracellular lipids [1]: 128%
% relative quantity of PGC-1α mRNA (PGC-1α gene): 125%
effect on the volume of the breasts (breasts): induces an increase in the volume of the breasts
Activity of the PGC-1α promoter (%) (human PGC-1α promoter): 114%
